Test results: US20210255193A1, “LYSINE REACTIVE PROBES AND USES THEREOF” (The Scripps Research Institute, priority 2017, published 2021)

Tests used:
Assay in all cases: competitive isoTOP-ABPP
Assay type in all cases: binding
[1] = molecular target: T1, CDK2 Cyclin-dependent kinase 2 (Homo sapiens, UniProt P24941); settings: for R value (DMSO/fragment) for probe 1 labeling: P24941_K33, 50 uM, 231 sol, in vitro; for isoTOP-ABPP ratio, lysine P24941_K33: 50 uM_231_sol_in vitro
T1 construct: isoTOP-ABPP experiments performed in cell lysates (in vitro); endogenous in cells; host or cells: soluble proteome of human cancer cell lines (MDA-MB-231; Ramos and Jurkat also prepared)
Method in brief: (§1)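 Lysine engagement is reported as R, the MS1 peak-area ratio of heavy-tagged DMSO to light-tagged compound samples. Final fragment concentrations were 50 μM for activated esters and 100 μM for guanidinylating agents; STP-alkyne probe 0.1 mM, 1 h.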

[2] = molecular target: T2, IFIT3 Interferon-induced protein with tetratricopeptide (Homo sapiens, UniProt O14879); settings: for R value (DMSO/fragment) for probe 1 labeling: O14879_K148, 50 uM, 231 sol, in vitro; for isoTOP-ABPP ratio, lysine O14879_K148: 50 uM_231_sol_in vitro
T2 construct: isoTOP-ABPP experiments performed in cell lysates (in vitro); endogenous in cells; host or cells: MDA-MB-231 soluble lysate
T2 sequence (O14879 1-490): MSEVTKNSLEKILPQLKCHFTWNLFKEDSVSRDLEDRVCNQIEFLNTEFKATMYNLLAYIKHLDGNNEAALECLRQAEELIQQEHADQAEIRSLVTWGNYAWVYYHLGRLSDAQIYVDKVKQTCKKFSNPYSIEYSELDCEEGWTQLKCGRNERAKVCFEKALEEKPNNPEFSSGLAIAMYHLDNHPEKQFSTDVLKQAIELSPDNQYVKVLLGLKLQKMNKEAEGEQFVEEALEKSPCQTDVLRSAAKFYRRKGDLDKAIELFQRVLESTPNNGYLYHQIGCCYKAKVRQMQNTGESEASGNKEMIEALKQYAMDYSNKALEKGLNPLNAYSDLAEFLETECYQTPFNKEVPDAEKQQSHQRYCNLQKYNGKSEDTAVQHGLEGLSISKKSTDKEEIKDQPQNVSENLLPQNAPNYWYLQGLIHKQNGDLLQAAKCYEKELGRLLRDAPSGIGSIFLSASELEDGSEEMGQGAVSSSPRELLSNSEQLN
Method in brief: as §1

[3] = molecular target: T3, NT5DC1 5-nucleotidase domain-containing protein 1 (Homo sapiens, UniProt Q5TFE4); settings: for R value (DMSO/fragment) for probe 1 labeling: Q5TFE4_K123, 50 uM, 231 sol, in vitro; for isoTOP-ABPP ratio, lysine Q5TFE4_K123: 50 uM_231_sol_in vitro
T3 construct: isoTOP-ABPP experiments performed in cell lysates (in vitro); endogenous in cells; host or cells: soluble proteome of human cancer cell lines (MDA-MB-231; Ramos and Jurkat also prepared)
T3 sequence (Q5TFE4 1-455): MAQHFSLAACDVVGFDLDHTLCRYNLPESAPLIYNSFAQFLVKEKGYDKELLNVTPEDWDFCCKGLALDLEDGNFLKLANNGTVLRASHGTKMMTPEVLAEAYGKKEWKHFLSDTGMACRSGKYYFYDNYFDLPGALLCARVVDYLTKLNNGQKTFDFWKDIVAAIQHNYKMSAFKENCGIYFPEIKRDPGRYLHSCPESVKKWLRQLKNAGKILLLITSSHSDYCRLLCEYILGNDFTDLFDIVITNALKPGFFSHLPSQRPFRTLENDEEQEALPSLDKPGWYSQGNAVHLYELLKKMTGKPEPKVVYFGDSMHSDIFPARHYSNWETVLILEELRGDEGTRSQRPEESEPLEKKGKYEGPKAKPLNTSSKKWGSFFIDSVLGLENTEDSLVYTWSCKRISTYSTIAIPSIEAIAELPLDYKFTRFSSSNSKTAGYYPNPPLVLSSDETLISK
Method in brief: as §1

[4] = molecular target: T4, SOD2 Superoxide dismutase (Homo sapiens, UniProt P04179); settings: for R value (DMSO/fragment) for probe 1 labeling: P04179_K68, 50 uM, 231 sol, in vitro; for isoTOP-ABPP ratio, lysine P04179_K68: 50 uM_231_sol_in vitro
T4 construct: isoTOP-ABPP experiments performed in cell lysates (in vitro); endogenous in cells; host or cells: MDA-MB-231 soluble lysate
T4 sequence (P04179 25-222): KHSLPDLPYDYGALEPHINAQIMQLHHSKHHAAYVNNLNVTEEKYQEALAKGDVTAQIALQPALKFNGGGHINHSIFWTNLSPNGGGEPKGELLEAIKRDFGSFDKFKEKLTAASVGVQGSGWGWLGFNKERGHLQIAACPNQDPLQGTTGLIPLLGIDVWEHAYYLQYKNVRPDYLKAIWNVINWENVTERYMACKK
Method in brief: as §1

R value (DMSO/fragment) for probe 1 labeling [1] | R value (DMSO/fragment) for probe 1 labeling [2] | R value (DMSO/fragment) for probe 1 labeling [3] | R value (DMSO/fragment) for probe 1 labeling [4] | Structure (SMILES) | isoTOP-ABPP ratio, lysine P24941_K33 [1] | isoTOP-ABPP ratio, lysine O14879_K148 [2] | isoTOP-ABPP ratio, lysine Q5TFE4_K123 [3] | isoTOP-ABPP ratio, lysine P04179_K68 [4]
0.9 | 0.7 | 1.0 | 1.0 | O=C(Oc1c(F)c(F)c(F)c(F)c1F)C(c1ccccc1)c1ccccc1 [fragment 20, Pentafluorophenyl 2,2-diphenylacetate] |  |  |  | 
 |  |  |  | O=C(CCc1ccc2c(c1)OCO2)Oc1ccc([N+](=O)[O-])cc1[N+](=O)[O-] [fragment 45, 2,4-Dinitrophenyl 3-(benzo[d][1,3]dioxol-5-yl)propanoate] | 4.6 | 2.7 | 2.1 | 0.9
 |  |  |  | O=C(ON1C(=O)CCC1=O)c1cc(C(F)(F)F)cc(C(F)(F)F)c1 [fragment 46, 3,5-Bis(trifluoromethyl)benzoic acid NHS ester] | 0.9 | 2.2 | 20.0 | 0.9
1.0 | 1.4 | 1.2 | 1.2 | O=C(Oc1c(F)c(F)c(F)c(F)c1F)c1cc(C(F)(F)F)cc(C(F)(F)F)c1 [fragment 21, Pentafluorophenyl 3,5-bis(trifluoromethyl)benzoate] |  |  |  | 
